Measurements reported in patent publication US9546401B2, “Assays and methods for selecting a treatment regimen for a subject with depression” (The General Hospital Corporation, priority 2011, dated 2017).
Read-outs that look alike come from different tables or passages of the source.

System: MDD patients carrying the indicated biomarkers
Method: Folate levels are classified as either low (<=2.5 ng/ml) or normal; and homocysteine levels as either normal or elevated (>=[…]). The presence or absence of at least one […] allele for the MTHFR gene are entered as a dichotomous variable (present or absent). […] Using folate as an example predicator, the presence or absence of a low serum-folate level along with treatment assignment can be entered in a 2×2, factorial ANOVA, using depression improvement scores (baseline minus endpoint HAM-D-17 scores) as the dependant variable. […] Similar analyses (i.e. separate 2×2 ANOVA's) can be performed substituting the presence of low folate levels for the presence of other predictors as described herein. Similarly, the effect of other predictors can be indicated by the interaction term representing the potential modulating influence of those variables.
The efficacy effect is determined by measuring the mean change in the HAMD-17 score and HAMD-28 score by the end of Phase I and Phase II, as compared to the baseline.

[1] = Phase I, BMI < 30 kg/m^2 and SAM/SAH >= median
[2] = Phase I, BMI >= 30 kg/m^2 and HNE-His >= median
[3] = Phase I, BMI*treat (interaction of BMI with the treatment)
[4] = Phase I, MTHFR 677 CC and BMI < 30 kg/m^2
[5] = Phase I, MTHFR 677 CT or TT and BMI >= 30 kg/m^2
[6] = Phase I, MTHFR 677 CT or TT and HNE-His >= median
[7] = Phase I, MTR 2756 AA and BMI < 30 kg/m^2
[8] = Phase I, MTR 2756 AA and HNE-His < median
[9] = Phase I, MTR 2756 AA and MTRR 66 AA
[10] = Phase I, MTR 2756 AA and MTRR 66 AA and SAM/SAH >= median
[11] = Phase I, MTR 2756 AA and SAM/SAH >= median
[12] = Phase I, MTR 2756 AG or GG and BMI >= 30 kg/m^2
[13] = Phase I, MTR 2756 AG or GG and MTRR 66 AG or GG
[14] = Phase I, MTR 2756 AG or GG and MTRR 66 AG or GG and HNE-His >= median
[15] = Phase I, MTRR 66 AA and SAM/SAH >= median
[16] = Phase I, MTRR 66 AG or GG and HNE-His >= median
[17] = Phase I, SAM/SAH < median and HNE-His >= median
[18] = Phase I, SAM/SAH >= median and HNE-His < median
[19] = Phase II, 25 =< BMI < 30 kg/m^2

In the case of `CN1c2c(nc(N)[nH]c2=O)NC[C@@H]1CNc1ccc(C(=O)N[C@@H](CCC(=O)O)C(=O)O)cc1` [6(S)-5-MTHF, 6(S)-5-methyltetrahydrofolate], the “Effect on change in HAMD-28 score” value (Phase I, BMI < 30 kg/m^2 and HNE-His < median) is reported as 4.606, the “Effect on change in HAMD-17 score” value [1] is reported as 4.333 and the “Effect on change in HAMD-28 score” value [1] is reported as 4.333. For the same compound, the “Effect on change in HAMD-17 score” value (Phase I, BMI >= 30 kg/m^2) was −6.414, the “Effect on change in HAMD-28 score” value (Phase I, BMI >= 30 kg/m^2) was −6.677 and the “Effect on change in HAMD-17 score” value [2] was −6.569. For the same compound, the “Effect on change in HAMD-28 score” value [2] was −6.510, the “Effect on change in HAMD-17 score” value (Phase I, BMI >= 30 kg/m^2 and SAM/SAH < median) was −5.611 and the “Effect on change in HAMD-28 score” value (Phase I, BMI >= 30 kg/m^2 and SAM/SAH < median = 2.71 (plasma)) was −6.306. The “Effect on change in HAMD-17 score” value [3] was −0.567, the “Effect on change in HAMD-28 score” value [3] was −0.668 and the “Effect on change in HAMD-17 score” value [4] was 4.500. For the same compound, the “Effect on change in HAMD-28 score” value [4] was 2.769, the “Effect on change in HAMD-17 score” value (Phase I, MTHFR 677 CC and HNE-His < median) was −1.471 and the “Effect on change in HAMD-28 score” value (Phase I, MTHFR 677 CC and HNE-His < median = 3.28 (plasma)) was −2.821. For the same compound, the “Effect on change in HAMD-17 score” value [5] was −8.738, the “Effect on change in HAMD-28 score” value [5] was −9.857 and the “Effect on change in HAMD-17 score” value [6] was −7.143. The “Effect on change in HAMD-28 score” value [6] was −6.929, the “Effect on change in HAMD-17 score” value (Phase I, MTR 2756 AA) was −0.621 and the “Effect on change in HAMD-28 score” value (Phase I, MTR 2756 AA) was 0.409. For the same compound, the “Effect on change in HAMD-17 score” value [7] was 4.476, the “Effect on change in HAMD-28 score” value [7] was 5.524 and the “Effect on change in HAMD-17 score” value [8] was 0.306. The “Effect on change in HAMD-28 score” value [8] was 0.639, the “Effect on change in HAMD-17 score” value [9] was 3.125 and the “Effect on change in HAMD-28 score” value [9] was 5.000. For the same compound, the “Effect on change in HAMD-17 score” value (Phase I, MTR 2756 AA and MTRR 66 AA and HNE-His < median) was 3.000, the “Effect on change in HAMD-28 score” value (Phase I, MTR 2756 AA and MTRR 66 AA and HNE-His < median = 3.28 (plasma)) was 4.200 and the “Effect on change in HAMD-17 score” value [10] was −0.400. The “Effect on change in HAMD-28 score” value [10] was −1.000, the “Effect on change in HAMD-17 score” value [11] was −1.556 and the “Effect on change in HAMD-28 score” value [11] was −1.278. The “Effect on change in HAMD-17 score” value [12] was −12.905, the “Effect on change in HAMD-28 score” value [12] was −18.762 and the “Effect on change in HAMD-17 score” value (Phase I, MTR 2756 AG or GG and HNE-His >= median) was −7.125. The “Effect on change in HAMD-28 score” value (Phase I, MTR 2756 AG or GG and HNE-His >= median = 3.28 (plasma)) was −9.950, the “Effect on change in HAMD-17 score” value [13] was −6.900 and the “Effect on change in HAMD-28 score” value [13] was −9.996. The “Effect on change in HAMD-17 score” value [14] was −7.200, the “Effect on change in HAMD-28 score” value [14] was −9.800 and the “Effect on change in HAMD-17 score” value (Phase I, MTR 2756 AG or GG and MTRR 66 AG or GG and SAM/SAH < median) was −9.000. For the same compound, the “Effect on change in HAMD-28 score” value (Phase I, MTR 2756 AG or GG and MTRR 66 AG or GG and SAM/SAH < median = 2.71 (plasma)) was −12.741, the “Effect on change in HAMD-17 score” value (Phase I, MTR 2756 AG or GG and SAM/SAH < median) was −9.800 and the “Effect on change in HAMD-28 score” value (Phase I, MTR 2756 AG or GG and SAM/SAH < median = 2.71 (plasma)) was −14.993. For the same compound, the “Effect on change in HAMD-17 score” value (Phase I, MTR 2756 AG/GG) was −7.143, the “Effect on change in HAMD-28 score” value (Phase I, MTR 2756 AG/GG) was −10.926 and the “Effect on change in HAMD-17 score” value (Phase I, MTRR 66 AA and HNE-His < median) was −1.167. For the same compound, the “Effect on change in HAMD-28 score” value (Phase I, MTRR 66 AA and HNE-His < median = 3.28 (plasma)) was −4.167, the “Effect on change in HAMD-17 score” value [15] was −0.125 and the “Effect on change in HAMD-28 score” value [15] was 0.500. For the same compound, the “Effect on change in HAMD-17 score” value [16] was −5.958, the “Effect on change in HAMD-28 score” value [16] was −6.975 and the “Effect on change in HAMD-17 score” value (Phase I, MTRR 66 AG or GG and SAM/SAH < median) was −5.062. The “Effect on change in HAMD-28 score” value (Phase I, MTRR 66 AG or GG and SAM/SAH < median = 2.71 (plasma)) was −6.498, the “Effect on change in HAMD-17 score” value [17] was −3.670 and the “Effect on change in HAMD-28 score” value [17] was −4.227. For the same compound, the “Effect on change in HAMD-17 score” value (Phase I, SAM/SAH >= med) was −0.946, the “Effect on change in HAMD-28 score” value (Phase I, SAM/SAH >= med = 2.71 (plasma)) was −1.148 and the “Effect on change in HAMD-17 score” value [18] was −0.250. For the same compound, the “Effect on change in HAMD-28 score” value [18] was −0.750, the “Effect on change in HAMD-28 score” value (Phase I, SAM/SAH*treat, first line under HAMD28) was 0.495 and the “Effect on change in HAMD-17 score” value (Phase I, baseHAMD-17*treat (interaction of base HAMD-17 with the treatment)) was 0.165. The “Effect on change in HAMD-17 score” value [19] was 2.000, the “Effect on change in HAMD-28 score” value [19] was 0.000 and the “Effect on change in HAMD-17 score” value (Phase II, BMI < 25) was −1.400.
